Measured values as given in ChEMBL document CHEMBL1201862, “PubChem BioAssay data set” (2004).
The source made the active and inactive calls.

Experiments:
Genome polyprotein = Genome polyprotein (dengue virus type 2, UniProt P29990); assay: Dengue-2 NS5 methyltransferase inhibitors, primary screen, biochemical, confirmation dose response (AID 588689); assay type: functional
[1] = biological target: T1, Replicative DNA helicase DnaB (Mycobacterium tuberculosis, UniProt P9WMR3); assay: DnaB intein splicing inhibitors, dose response, biochemical, cell-free fluorescence (AID 449749); assay type: functional
T1 sequence (P9WMR3 whole entry): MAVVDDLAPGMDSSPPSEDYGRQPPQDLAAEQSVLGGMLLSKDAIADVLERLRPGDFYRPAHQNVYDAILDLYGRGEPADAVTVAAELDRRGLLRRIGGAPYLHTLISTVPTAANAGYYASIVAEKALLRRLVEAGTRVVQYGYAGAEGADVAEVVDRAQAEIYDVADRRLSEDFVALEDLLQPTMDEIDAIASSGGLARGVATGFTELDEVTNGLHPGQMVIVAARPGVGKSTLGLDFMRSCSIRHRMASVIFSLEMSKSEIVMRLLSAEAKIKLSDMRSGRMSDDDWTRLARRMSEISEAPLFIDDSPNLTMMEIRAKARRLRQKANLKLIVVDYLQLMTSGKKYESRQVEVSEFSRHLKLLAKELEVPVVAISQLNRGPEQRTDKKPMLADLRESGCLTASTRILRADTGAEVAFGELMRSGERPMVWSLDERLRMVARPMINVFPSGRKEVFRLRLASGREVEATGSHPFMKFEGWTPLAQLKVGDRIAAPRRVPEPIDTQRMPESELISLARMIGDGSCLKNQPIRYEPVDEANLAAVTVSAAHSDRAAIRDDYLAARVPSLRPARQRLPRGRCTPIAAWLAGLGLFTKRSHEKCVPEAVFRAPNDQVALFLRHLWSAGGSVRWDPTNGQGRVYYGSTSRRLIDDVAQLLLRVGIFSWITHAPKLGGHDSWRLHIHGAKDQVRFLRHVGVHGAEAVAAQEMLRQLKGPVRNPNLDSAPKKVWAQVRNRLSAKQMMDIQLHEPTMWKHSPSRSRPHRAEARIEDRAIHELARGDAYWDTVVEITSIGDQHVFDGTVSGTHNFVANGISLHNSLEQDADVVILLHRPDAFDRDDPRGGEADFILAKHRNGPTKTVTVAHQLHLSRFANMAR

Protein RecA = biological target: T2, Protein RecA (Mycobacterium tuberculosis, UniProt P9WHJ3); assay: Fluorescence Cell-Free Homogeneous Dose Retest to Identify Inhibitors of RecA-Intein Splicing Activity. [Related pubchem assays (depositor defined):AID2097, AID2223, AID489010, AID492950]; assay type: functional
T2 sequence (P9WHJ3 whole entry): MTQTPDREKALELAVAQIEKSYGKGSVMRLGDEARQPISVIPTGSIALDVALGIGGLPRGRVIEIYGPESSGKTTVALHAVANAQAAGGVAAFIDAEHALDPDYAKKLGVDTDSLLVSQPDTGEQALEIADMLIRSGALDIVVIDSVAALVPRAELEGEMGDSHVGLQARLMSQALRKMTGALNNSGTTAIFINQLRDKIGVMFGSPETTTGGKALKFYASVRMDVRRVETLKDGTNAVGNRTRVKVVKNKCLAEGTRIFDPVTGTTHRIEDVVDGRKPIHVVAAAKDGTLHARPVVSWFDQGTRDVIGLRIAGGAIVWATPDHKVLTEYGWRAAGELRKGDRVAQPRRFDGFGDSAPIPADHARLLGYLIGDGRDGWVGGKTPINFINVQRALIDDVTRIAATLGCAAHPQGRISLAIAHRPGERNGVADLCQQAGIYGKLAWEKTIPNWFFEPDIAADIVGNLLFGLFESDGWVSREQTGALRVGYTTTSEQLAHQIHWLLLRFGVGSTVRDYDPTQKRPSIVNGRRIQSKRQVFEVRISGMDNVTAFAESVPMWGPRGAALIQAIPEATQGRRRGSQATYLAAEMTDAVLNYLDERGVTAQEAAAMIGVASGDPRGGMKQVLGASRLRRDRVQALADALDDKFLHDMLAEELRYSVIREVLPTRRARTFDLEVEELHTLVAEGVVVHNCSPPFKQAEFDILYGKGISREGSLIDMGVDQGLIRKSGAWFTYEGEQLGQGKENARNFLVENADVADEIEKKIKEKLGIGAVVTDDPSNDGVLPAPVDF

Large T antigen = Large T antigen (Simian virus 40, UniProt P03070); assay type: functional, Betapolyomavirus macacae;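 note: Confirmatory-stage PubChem screen for compounds that inhibit SV40 T antigen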
[2] = biological target: FAD-linked sulfhydryl oxidase ALR (Homo sapiens, UniProt P55789); assay: inhibitors of human ALR sulfhydryl oxidase, dose response, biochemical, H2O2 detection, luminescence, cherry-pick (AID 493248)
[3] = HEp-2 cell cytotoxicity, dose response, cytotoxicity control for RSV inhibitor project, HTS (AID 2410); assay type: functional; conditions: human respiratory syncytial virus
[4] = biological target: Glyceraldehyde-3-phosphate dehydrogenase (Homo sapiens, UniProt P04406)
cells [5] = assay type: functional, cell-based
cells [6] = assay type: functional, cell-based; remark: listed apart in the source
[7] = inhibitors of firefly luciferase expression or activity, dose response, H4 neuroglioma cells, luminescence (AID 1990); assay type: functional, cell-based
[8] = Luminescence Cell-Based Dose Response HTS to Identify Inhibitors of 5'UTR Stem-Loop Driven Prion Protein mRNA Translation in H4 Neuroglioblastoma Cells. [Related pubchem assays: 1827 (Project Summary), 1813 (Primary HTS)]; assay type: functional
[9] = inhibitors of SNCA 5'UTR-driven reporter translation, confirmation, H4 neuroglioma cells, luminescence (AID 1988); assay type: functional, cell-based
[10] = growth suppression of PTEN-null colon cells, dose response, cell-based, HCT116 PTEN knockout (AID 1047); assay type: functional;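 note: HCT116 colon tumor cells with PTEN knocked out; cells exposed to compound for 60 hours before readout; potency for loss of cell viability measured by luminescence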
[11] = growth suppression of beta-catenin-knockout colon cells, dose response, cell-based, HCT116, human colon tumor (AID 1045); assay type: functional;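 note: HCT116 colon tumor cells with beta catenin knocked out; cells exposed to compound for 60 hours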
[12] = biological target: T3, Ubiquitin-conjugating enzyme E2 N (Homo sapiens, UniProt P61088); assay type: functional;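 note: Dose-response confirmation in a TR-FRET assay detecting UBC13-driven polyubiquitin chain formation, inhibition measured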
T3 sequence (P61088 whole entry): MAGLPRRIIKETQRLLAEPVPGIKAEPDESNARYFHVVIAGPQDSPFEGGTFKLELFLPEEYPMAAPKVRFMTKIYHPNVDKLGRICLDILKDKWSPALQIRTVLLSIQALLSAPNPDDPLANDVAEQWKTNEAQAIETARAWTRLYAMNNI

Cytochrome P450 3A4 = Cytochrome P450 3A4 (Homo sapiens, UniProt P08684);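 note: CYP3A4 tested as one member of a cytochrome P450 panel screen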
[13] = biological target: Luciferin 4-monooxygenase (Photinus pyralis, UniProt P08659); assay: firefly luciferase enzyme inhibitors, dose response, biochemical, luminescence (AID 1891)
[14] = Luminescence Cell-Based Dose Confirmation HTS to Identify Inhibitors of Platelet Dense Granule Release. [Related pubchem assays: 1663 (Primary HTS), 1678 (Summary of Project)]; assay type: functional
BJ [15] = assay: cytotoxicity toward BJ-TERT fibroblasts, dose response, cell-based, RAS-independent, luminescence (AID 1933); assay type: functional; conditions: Homo sapiens
BJ [16] = assay: cells; assay type: functional, cell-based; conditions: Homo sapiens
[17] = cytotoxicity toward DRD oncogenic fibroblasts, dose response, cell-based, non-viral oncogenic, luminescence (AID 1934); assay type: functional; conditions: Homo sapiens
Paired box protein Pax-8 = Paired box protein Pax-8 (Homo sapiens, UniProt Q06710); assay: inhibitors of PAX8-driven TPO luciferase reporter, dose response, RMG-I cells, cherry-pick (AID 687027); assay type: functional, cell-based;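 note: luciferase reporter driven by Pax8 target thyroperoxidase promoter measured by SteadyGlo luminescence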
[18] = biological target: T4, Rac GTPase-activating protein 1 (Homo sapiens, UniProt Q9H0H5); assay: MgcRacGAP GTPase-activating activity inhibitors, confirmation, biochemical, ADP Hunter fluorescence, primary and confirmatory (AID 624330); assay type: functional
T4 sequence (Q9H0H5 whole entry): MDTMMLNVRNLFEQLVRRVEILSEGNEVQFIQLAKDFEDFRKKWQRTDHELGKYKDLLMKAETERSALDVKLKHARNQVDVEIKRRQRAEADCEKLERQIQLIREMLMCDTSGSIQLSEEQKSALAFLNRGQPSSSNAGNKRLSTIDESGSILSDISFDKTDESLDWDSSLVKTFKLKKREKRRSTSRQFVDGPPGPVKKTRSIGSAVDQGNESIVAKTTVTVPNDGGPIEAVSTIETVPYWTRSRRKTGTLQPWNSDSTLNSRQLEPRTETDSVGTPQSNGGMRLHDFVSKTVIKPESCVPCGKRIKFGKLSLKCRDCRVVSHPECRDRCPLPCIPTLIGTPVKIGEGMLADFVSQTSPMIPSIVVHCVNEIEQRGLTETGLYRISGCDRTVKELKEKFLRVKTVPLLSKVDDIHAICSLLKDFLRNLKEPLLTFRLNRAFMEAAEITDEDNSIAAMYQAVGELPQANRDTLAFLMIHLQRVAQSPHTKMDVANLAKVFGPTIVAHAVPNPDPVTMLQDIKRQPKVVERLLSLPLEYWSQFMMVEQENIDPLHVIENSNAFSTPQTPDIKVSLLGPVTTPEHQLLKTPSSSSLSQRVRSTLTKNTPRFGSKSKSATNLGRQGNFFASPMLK

Glyceraldehyde-3-phosphate dehydrogenase, sequence (P04406 whole entry): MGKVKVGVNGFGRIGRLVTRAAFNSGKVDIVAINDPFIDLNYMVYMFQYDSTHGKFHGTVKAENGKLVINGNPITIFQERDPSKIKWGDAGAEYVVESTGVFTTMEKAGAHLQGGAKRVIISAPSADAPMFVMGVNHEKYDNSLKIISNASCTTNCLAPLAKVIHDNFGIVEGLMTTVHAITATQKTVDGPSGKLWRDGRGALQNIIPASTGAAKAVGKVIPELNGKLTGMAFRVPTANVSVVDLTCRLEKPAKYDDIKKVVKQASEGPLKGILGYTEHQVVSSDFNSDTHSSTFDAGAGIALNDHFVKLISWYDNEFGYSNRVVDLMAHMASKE
Genome polyprotein, sequence (P29990 2492-3391 limits assumed): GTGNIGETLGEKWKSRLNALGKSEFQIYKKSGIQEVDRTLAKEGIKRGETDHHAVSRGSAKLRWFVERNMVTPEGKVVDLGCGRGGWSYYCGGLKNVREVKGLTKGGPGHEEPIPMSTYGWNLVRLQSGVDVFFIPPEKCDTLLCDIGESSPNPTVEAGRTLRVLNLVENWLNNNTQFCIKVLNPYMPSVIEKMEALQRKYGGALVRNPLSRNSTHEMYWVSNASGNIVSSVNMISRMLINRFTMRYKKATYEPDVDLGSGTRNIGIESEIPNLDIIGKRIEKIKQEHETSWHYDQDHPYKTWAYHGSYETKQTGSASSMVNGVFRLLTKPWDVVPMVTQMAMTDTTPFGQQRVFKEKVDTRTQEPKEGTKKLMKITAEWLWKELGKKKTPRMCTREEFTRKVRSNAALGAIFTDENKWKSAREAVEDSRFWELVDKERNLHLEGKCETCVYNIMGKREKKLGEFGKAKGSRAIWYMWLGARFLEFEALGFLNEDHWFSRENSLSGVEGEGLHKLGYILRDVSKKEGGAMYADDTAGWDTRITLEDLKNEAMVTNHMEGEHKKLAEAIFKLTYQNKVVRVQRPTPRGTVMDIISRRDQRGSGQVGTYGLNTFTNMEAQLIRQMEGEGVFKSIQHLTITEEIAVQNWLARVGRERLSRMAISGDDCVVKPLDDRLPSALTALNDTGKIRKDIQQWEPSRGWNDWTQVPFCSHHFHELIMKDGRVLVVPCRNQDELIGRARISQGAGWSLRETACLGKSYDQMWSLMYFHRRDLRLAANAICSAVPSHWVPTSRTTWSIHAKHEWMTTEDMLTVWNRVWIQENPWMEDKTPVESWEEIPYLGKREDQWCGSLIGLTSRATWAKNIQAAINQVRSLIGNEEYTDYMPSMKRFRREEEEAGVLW
Large T antigen, sequence (P03070 whole entry): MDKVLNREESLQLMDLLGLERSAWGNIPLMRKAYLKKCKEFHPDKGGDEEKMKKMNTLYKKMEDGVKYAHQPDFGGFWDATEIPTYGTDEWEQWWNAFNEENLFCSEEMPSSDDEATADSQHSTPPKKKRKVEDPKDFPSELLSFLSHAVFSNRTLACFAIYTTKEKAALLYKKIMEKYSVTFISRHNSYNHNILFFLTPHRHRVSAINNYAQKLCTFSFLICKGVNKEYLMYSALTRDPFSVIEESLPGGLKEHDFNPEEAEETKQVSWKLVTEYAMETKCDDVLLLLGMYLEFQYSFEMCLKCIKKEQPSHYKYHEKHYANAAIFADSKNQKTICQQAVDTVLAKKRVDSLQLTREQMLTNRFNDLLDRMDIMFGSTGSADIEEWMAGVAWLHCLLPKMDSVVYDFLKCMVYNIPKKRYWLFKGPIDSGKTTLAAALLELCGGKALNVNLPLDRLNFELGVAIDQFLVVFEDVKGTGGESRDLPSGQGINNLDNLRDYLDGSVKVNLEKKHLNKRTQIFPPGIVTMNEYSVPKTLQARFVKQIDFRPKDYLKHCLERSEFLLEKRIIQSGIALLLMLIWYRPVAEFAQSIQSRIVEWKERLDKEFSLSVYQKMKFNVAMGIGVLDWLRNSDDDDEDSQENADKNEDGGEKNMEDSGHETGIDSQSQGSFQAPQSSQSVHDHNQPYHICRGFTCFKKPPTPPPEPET
FAD-linked sulfhydryl oxidase ALR, sequence (P55789 whole entry): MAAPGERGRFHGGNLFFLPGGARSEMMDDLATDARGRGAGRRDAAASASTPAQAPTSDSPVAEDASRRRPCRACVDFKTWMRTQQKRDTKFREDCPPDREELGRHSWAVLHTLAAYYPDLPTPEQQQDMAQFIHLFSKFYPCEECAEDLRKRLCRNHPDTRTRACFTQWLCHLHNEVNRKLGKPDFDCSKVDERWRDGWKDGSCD
Paired box protein Pax-8, sequence (Q06710 whole entry): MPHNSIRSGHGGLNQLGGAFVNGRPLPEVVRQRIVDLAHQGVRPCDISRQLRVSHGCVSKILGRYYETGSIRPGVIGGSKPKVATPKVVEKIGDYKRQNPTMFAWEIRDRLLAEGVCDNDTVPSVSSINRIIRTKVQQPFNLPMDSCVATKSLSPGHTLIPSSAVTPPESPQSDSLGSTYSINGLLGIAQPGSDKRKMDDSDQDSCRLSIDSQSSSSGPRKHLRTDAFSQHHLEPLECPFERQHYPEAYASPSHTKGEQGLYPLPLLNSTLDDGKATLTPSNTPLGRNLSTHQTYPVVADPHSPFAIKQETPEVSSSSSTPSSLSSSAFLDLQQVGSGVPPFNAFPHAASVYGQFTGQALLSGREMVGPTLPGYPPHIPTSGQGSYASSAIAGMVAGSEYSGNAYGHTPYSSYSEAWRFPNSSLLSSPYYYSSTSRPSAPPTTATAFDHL
Luciferin 4-monooxygenase, sequence (P08659 whole entry): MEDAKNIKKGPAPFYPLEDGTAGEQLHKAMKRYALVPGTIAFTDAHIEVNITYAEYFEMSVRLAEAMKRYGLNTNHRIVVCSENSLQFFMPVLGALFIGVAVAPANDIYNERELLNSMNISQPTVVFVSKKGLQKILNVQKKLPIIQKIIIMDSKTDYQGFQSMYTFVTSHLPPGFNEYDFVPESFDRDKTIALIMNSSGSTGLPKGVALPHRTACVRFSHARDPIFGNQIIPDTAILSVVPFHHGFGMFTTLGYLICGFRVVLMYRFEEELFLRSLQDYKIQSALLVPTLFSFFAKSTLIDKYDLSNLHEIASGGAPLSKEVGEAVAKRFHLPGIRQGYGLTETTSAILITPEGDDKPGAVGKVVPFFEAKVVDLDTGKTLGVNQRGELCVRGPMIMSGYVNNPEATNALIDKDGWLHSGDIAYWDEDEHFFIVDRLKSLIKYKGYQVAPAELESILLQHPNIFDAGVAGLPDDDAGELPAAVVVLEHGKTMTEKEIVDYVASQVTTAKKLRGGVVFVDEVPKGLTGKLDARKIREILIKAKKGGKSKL
Cytochrome P450 3A4, sequence (P08684 whole entry): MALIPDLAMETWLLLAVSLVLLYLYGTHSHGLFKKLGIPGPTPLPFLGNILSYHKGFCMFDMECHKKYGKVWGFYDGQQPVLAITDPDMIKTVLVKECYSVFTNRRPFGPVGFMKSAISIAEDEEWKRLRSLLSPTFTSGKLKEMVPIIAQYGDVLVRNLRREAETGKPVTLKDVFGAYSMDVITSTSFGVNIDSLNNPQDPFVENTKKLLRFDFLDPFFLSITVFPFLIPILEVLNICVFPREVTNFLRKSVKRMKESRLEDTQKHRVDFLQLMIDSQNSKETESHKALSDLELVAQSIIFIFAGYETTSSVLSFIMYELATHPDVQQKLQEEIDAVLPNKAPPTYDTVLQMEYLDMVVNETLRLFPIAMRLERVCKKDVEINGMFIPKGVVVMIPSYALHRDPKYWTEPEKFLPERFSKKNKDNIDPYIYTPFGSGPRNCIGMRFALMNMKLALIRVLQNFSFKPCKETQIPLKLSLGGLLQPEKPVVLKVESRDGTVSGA

Structure (SMILES): COc1ccccc1/C=C1/C(=O)ON=C1C
- IC50 (Genome polyprotein): > 100 µM (active)

Structure (SMILES): CC1=NN(c2ccccc2)C(=O)/C1=C/c1cccs1
- AC50 [1]: 4.26 µM (active)
- EC50 (Protein RecA): 4.53 µM (active)
- IC50 (Genome polyprotein): 46.8 µM (active)

Structure (SMILES): COc1cc(/C=N/NC(=O)c2cccc(S(=O)(=O)N3CCCC3)c2)ccc1O
- IC50 (Large T antigen): 9.24 µM (active)
- AC50 [2]: 1.79 µM (active)

Structure (SMILES): CCOc1ccc(NCc2cccn2-c2nnc(N3CCC(C(=O)NCCCN4CCCCC4CC)CC3)s2)cc1 (configuration not stated)
- IC50 (Large T antigen): 11.7 µM (active)

Structure (SMILES): CC/N=c1\scc(C)n1/N=C/c1cc(Br)c(O)c(Br)c1
- CC50 [3]: 13.3 µM (active)
- IC50 (Large T antigen): 21.6 µM (active)

Structure (SMILES): CCN1CCN(C2=C(Cl)C(=O)N(c3cccc(OC)c3)C2=O)CC1
- IC50 [4]: > 50 µM (inconclusive)

Structure (SMILES): CCOC(=O)C1=C(C)N=C(C)/C(=C(/O)OCC)C1C(=O)OCC(=O)N(C)C1CCS(=O)(=O)C1 (configuration not stated)
- EC50 (cells [5]): > 350 µM (not active)
- EC50 (cells [6]): > 350 µM (not active)

Structure (SMILES): Cc1ccc(-c2nn(-c3ccccc3)cc2CSC(=N)N)cc1
- CC50 [3]: 14.9 µM (active)
- EC50 [7]: > 120 µM (not active)
- EC50 [8]: > 120 µM (not active)
- EC50 [9]: > 120 µM (not active)
- EC50 [10]: 17.1 µM (active)
- EC50 [11]: 17.4 µM (active)
- IC50 [12]: > 20 µM (inactive)
- AC50 (Cytochrome P450 3A4): 39.8 µM (inconclusive)

Structure (SMILES): CC(C)NC(=O)NC(=O)CSc1nnc(-c2ccccc2F)n1N
- EC50 (cells [5]): > 350 µM (not active)
- EC50 (cells [6]): > 350 µM (not active)

Structure (SMILES): O=C1CCCN1CCCNC(=S)Nc1ccc(Nc2ccccc2)cc1
- IC50 (Large T antigen): 18.7 µM (active)

Structure (SMILES): Cc1ccc(N(C)S(=O)(=O)c2ccc(-c3cc(C)no3)s2)cc1
- EC50 (cells [5]): > 350 µM (not active)
- EC50 (cells [6]): > 350 µM (not active)

Structure (SMILES): Cc1cccc(C(=N)NOC(=O)c2ccoc2C)c1
- EC50 (cells [5]): > 350 µM (not active)
- EC50 [13]: 3.65 µM (active)
- EC50 [14]: 3.25 µM (active)
- EC50 (cells [6]): 7.1 µM (active)

Structure (SMILES): COc1cc(/C=C2\C(=N)N3N=C(CC(=O)N4CCCCC4)SC3=NC2=O)ccc1O
- IC50 (Large T antigen): 22.5 µM (active)

Structure (SMILES): Cc1n[nH]c(O)c1C(c1ccc(-c2ccc(Cl)c(C(=O)O)c2)o1)c1c(O)n[nH]c1C
- IC50 (Genome polyprotein): > 100 µM (active)

Structure (SMILES): COc1ccc(C(=O)NN(C)c2nc(C(F)(F)F)nc3ccccc23)cc1
- EC50 (BJ [15]): < 0.12 µM (active)
- EC50 (BJ [16]): 0.45 µM (active)
- EC50 [17]: < 0.12 µM (active)
- AC50 (Paired box protein Pax-8): 1.79 µM (active)

Structure (SMILES): COc1cc(/C=N/NC(=O)c2cc(C3CC3)[nH]n2)ccc1O
- IC50 (Large T antigen): 7.28 µM (active)
- AC50 [2]: 1.74 µM (active)

Structure (SMILES): COc1cccc(/C=C2\SC(=S)N(C(Cc3ccccc3)C(=O)O)C2=O)c1 (configuration not stated)
- IC50 (Genome polyprotein): 44.4 µM (active)

Structure (SMILES): Cc1cc(C(C2C(=O)CC(C)(C)CC2=O)C2C(=O)CC(C)(C)CC2=O)cc(C)c1OC(F)F
- IC50 (Genome polyprotein): 43.5 µM (active)

Structure (SMILES): COc1ccc(C(CC(=O)O)C(N)=O)cc1 (configuration not stated)
- IC50 [4]: > 100 µM (not active)

Structure (SMILES): O=C(O)Cc1csc(COc2ccccc2)n1
- IC50 [4]: > 100 µM (not active)

Structure (SMILES): CC(C)C1Cc2c(sc3c2c(=O)n(-c2ccccc2)c2n[nH]c(=S)n32)CO1 (configuration not stated)
- IC50 (Large T antigen): 29.5 µM (active)

Structure (SMILES): CCN(CC)c1ccc(NC(=O)COC(=O)c2ccc3ccccc3n2)cc1
- IC50 (Large T antigen): 48.2 µM (active)

Structure (SMILES): O=C(CN1CCCCC1)N1CCCc2ccccc21
- EC50 (cells [5]): > 350 µM (not active)
- EC50 (cells [6]): > 350 µM (not active)

Structure (SMILES): COc1cc(/C=C2\SC(Nc3ccc(Cl)c(C(=O)O)c3)=NC2=O)c(Br)c(Br)c1O
- IC50 (Large T antigen): 3.27 µM (active)
- IC50 [18]: 13.9 µM (active)
